Patent US8846653B2, “Delta-tocotrienol treatment and prevention of pancreatic cancer” (University of South Florida, priority 2006, dated 2014)

Key:
Format in all cases: cell-based, human
[1] = system: SW1990 pancreatic cancer cells; test: MTS assay of SW1990 cultures, single 50 μM dose; settings: SW1990, 50 μM
How it was run: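 SW1990 cells were grown in DMEM with 10% FBS at 37 °C, 5% CO2. They were given one 50 μM dose of a tocotrienol, tocopherol, tocopherol succinate, geranylgeraniol or succinic acid, in an olive-oil-extract vehicle. MTS viability was read at 24, 48 or 72 h and compared with vehicle-only cultures.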

BXPC3 cells = test: MTT assay of BXPC3 cultures, single 50 μM dose; set-up: MTT assay result, run 1 / MTT assay result, run 2 / MTT assay result, run 3 / MTT assay result, run 4 / MTT assay result, run 5 / MTT assay result, run 6 / MTT assay result, run 7 / MTT assay result, av (average) / MTT assay result, av-blank / MTT assay result, av: unit not given here; settings: BXPC3, 50 μM; for MTT assay result, av-blank: average minus blank
How it was run: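 BXPC3 cells in 10% FBS medium at 37° C, 5% CO2, given a single 50 μM dose of tocotrienols, tocopherols, tocopherol succinate, geranylgeraniol, succinic acid or vehicle, alongside untreated control. Viability read by MTT at 48 or 120 hours.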

MiaPaCa-2 cells = test: MTS assay of MiaPaCa2 cultures, single 50 μM dose; settings: MiaPaCa2, 50 μM
How it was run: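 MiaPaCa-2 pancreatic cancer cells were grown in complete DMEM with 10% fetal bovine serum, 1% penicillin-streptomycin and 1% L-glutamine, kept at 37° C. in a humidified 5% CO2 incubator. They received a single 50 μM dose of test agent or vehicle alongside an untreated control culture, and viability was assessed by MTS assay.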

## Cc1c(C)c2c(c(C)c1OC(=O)CCC(=O)O)CC[C@@](C)(CCC[C@H](C)CCC[C@H](C)CCCC(C)C)O2 [TS, tocopherol succinate]
[1]; 24 hours
  rel amnt (relative value set to the control): 110
  MTS assay result, run 1: 0.155
  MTS assay result, run 2: 0.168
  MTS assay result, run 3: 0.164
  MTS assay result, run 4: 0.158
  MTS assay result, run 5: 0.155
  MTS assay result, run 6: 0.163
  MTS assay result, run 7: 0.165
  MTS assay result, run 8: 0.167
  MTS assay result, run 9: 0.162
[1]; 48 hours
  rel amnt (relative value set to the control): 104
  MTS assay result, run 1: 0.122
  MTS assay result, run 2: 0.166
  MTS assay result, run 3: 0.16
  MTS assay result, run 4: 0.135
  MTS assay result, run 5: 0.148
  MTS assay result, run 6: 0.174
  MTS assay result, run 7: 0.18
  MTS assay result, run 8: 0.173
  MTS assay result, run 9: 0.157
[1]; 72 hours
  rel amnt (relative value set to the control): 207
  MTS assay result, run 1: 0.998
  MTS assay result, run 2: 0.962
  MTS assay result, run 3: 1.02
  MTS assay result, run 4: 0.887
  MTS assay result, run 5: 0.936
  MTS assay result, run 6: 0.897
  MTS assay result, run 7: 0.85
  MTS assay result, run 8: 0.801
  MTS assay result, run 9: 0.918
BXPC3 cells; 48 hours
  rel amt (relative value set to the control): 100
  MTT assay result, av-blank: 0.229
  MTT assay result, run 1: 0.271
  MTT assay result, run 2: 0.274
  MTT assay result, run 3: 0.296
  MTT assay result, run 4: 0.271
  MTT assay result, run 5: 0.282
  MTT assay result, run 6: 0.274
  MTT assay result, run 7: 0.277
BXPC3 cells; 48 hours, average of 7 runs
  MTT assay result, av (average): 0.278
BXPC3 cells; 120 hours (5 days)
  rel amt (relative value set to the control): 17
  MTT assay result, av-blank: 0.097
  MTT assay result, run 1: 0.192
  MTT assay result, run 2: 0.127
  MTT assay result, run 3: 0.142
  MTT assay result, run 4: 0.162
  MTT assay result, run 5: 0.116
  MTT assay result, run 6: 0.129
  MTT assay result, run 7: 0.199
BXPC3 cells; 120 hours (5 days), average of 7 runs
  MTT assay result, av: 0.152
MiaPaCa-2 cells; 24 hours
  rel amt (relative value set to the control): 96
  MTS assay result, run 1: 0.24
  MTS assay result, run 2: 0.211
  MTS assay result, run 3: 0.226
  MTS assay result, run 4: 0.172
  MTS assay result, run 5: 0.221
  MTS assay result, run 6: 0.201
  MTS assay result, run 7: 0.214
  MTS assay result, run 8: 0.228
  MTS assay result, run 9: 0.214
MiaPaCa-2 cells; 48 hours
  rel amt (relative value set to the control): 76
  MTS assay result, run 1: 0.257
  MTS assay result, run 2: 0.254
  MTS assay result, run 3: 0.262
  MTS assay result, run 4: 0.237
  MTS assay result, run 5: 0.258
  MTS assay result, run 6: 0.275
  MTS assay result, run 7: 0.32
  MTS assay result, run 8: 0.337
  MTS assay result, run 9: 0.275
MiaPaCa-2 cells; 72 hours
  rel amt (relative value set to the control): 207
  MTS assay result, run 1: 0.998
  MTS assay result, run 2: 0.962
  MTS assay result, run 3: 1.016
  MTS assay result, run 4: 0.887
  MTS assay result, run 5: 0.936
  MTS assay result, run 6: 0.897
  MTS assay result, run 7: 0.85
  MTS assay result, run 8: 0.801
  MTS assay result, run 9: 0.918
